Measurements as given in patent US20120157471A1, “BENZIMIDAZOLE DERIVATIVES” (PFIZER INC., priority 2009, published 2012).

What was measured:
[1] = target: T1, human Smo (amino acids 181-787) (Homo sapiens, UniProt Q99835); experiment: Smo radioligand competition binding assay (displacement of 3H-PF-03451358 from HEK293 membranes); details: for inhibition at 0.05 µM: 0.05 μM test compound, displacement of 3H-PF-03451358, read-out: SMO % inh. @ 0.05 μM; for IC50: radioligand competition binding
T1 construct: expressed in transfected cells; membrane preparation
T1 sequence (Q99835 181-787): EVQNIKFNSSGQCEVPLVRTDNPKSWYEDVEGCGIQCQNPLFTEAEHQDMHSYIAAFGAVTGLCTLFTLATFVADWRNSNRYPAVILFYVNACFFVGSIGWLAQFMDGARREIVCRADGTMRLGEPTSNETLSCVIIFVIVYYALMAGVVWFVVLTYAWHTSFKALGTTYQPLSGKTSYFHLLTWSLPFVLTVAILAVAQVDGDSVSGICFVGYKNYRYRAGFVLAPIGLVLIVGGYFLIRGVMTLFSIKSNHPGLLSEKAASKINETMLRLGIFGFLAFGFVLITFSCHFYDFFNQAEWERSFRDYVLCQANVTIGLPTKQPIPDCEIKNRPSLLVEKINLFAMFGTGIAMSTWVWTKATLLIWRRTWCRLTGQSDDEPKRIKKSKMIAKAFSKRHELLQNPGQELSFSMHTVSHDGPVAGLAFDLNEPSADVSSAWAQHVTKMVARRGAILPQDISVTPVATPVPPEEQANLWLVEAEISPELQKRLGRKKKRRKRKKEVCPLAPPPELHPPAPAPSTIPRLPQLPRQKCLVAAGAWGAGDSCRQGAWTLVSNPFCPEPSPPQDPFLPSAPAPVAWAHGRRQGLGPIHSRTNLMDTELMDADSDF
In short: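 Displacement of 3 nM tritiated PF-03451358 measured by filtration and scintillation counting after 2 h at room temperature, using 40 μg/well HEK293 membranes bearing cell-surface Smo 181-787, pH 7.5 buffer. Specific binding defined against 30 μM unlabelled ligand; IC50 via variable-slope sigmoidal fit.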

[2] = test system: Gli-Luc/MEF cells (Smo); experiment: Gli-Luc/MEF assay (Shh-stimulated luciferase reporter under the Gli response element); assay type: cell-based, mouse; details: Mus musculus, MEF, 48 h
In short: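 IC50 derived from luminescence (Bright-Glo) after 48 h at 37° C, 5% CO2, with compound at […] (3-fold dilutions) added together with mouse Shh at 2 μg/mL final. Cells: MEFs from Gli-Luc transgenic mice.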

Row | Compound | inhibition at 0.05 µM [1] | IC50 [1] | IC50 [2]
1 | Cn1c(-c2cc(N3C[C@](C)(CO)[C@](C)(CO)C3)ncc2Cl)nc2ccccc21 [Example A-108, {(3R,4S)-1-[5-chloro-4-(1-methyl-1H-benzimidazol-2-yl)pyridin-2-yl]-3,4-dimethylpyrrolidine-3,4-diyl}dimethanol] | 76% | 109 nM | 59 nM
2 | Cn1c(-c2cc(N3CCn4cnnc4C3)ncc2Cl)nc2ccccc21 [Example A-109, 7-[5-chloro-4-(1-methyl-1H-benzimidazol-2-yl)pyridin-2-yl]-5,6,7,8-tetrahydro[1,2,4]triazolo[4,3-a]pyrazine] | 75% | 129 nM | 140 nM
3 | Cn1c(-c2cc(N3CCCn4cnc(CO)c4C3)ncc2Cl)nc2ccccc21 [Example A-110, {8-[5-chloro-4-(1-methyl-1H-benzimidazol-2-yl)pyridin-2-yl]-6,7,8,9-tetrahydro-5H-imidazo[1,5-a][1,4]diazepin-1-yl}methanol] | 74% | 161 nM | 93 nM
4 | Cn1c(-c2cc(N3C[C@@H](CO)[C@@H](CCO)C3)ncc2Cl)nc2ccccc21 [Example A-111, 2-[(3R,4S)-1-[5-chloro-4-(1-methyl-1H-benzimidazol-2-yl)pyridin-2-yl]-4-(hydroxymethyl)pyrrolidin-3-yl]ethanol] | 73% | 116 nM | 25 nM
5 | Cn1c(-c2cc(N3CCOCC(Cc4ncccn4)C3)ncc2Cl)nc2ccccc21 (centres unmarked) [Example A-112, 2-{5-chloro-2-[6-(pyrimidin-2-ylmethyl)-1,4-oxazepan-4-yl]pyridin-4-yl}-1-methyl-1H-benzimidazole] | 72% | 159 nM | 116 nM
6 | CN1CCN(C2CCN(c3cc(-c4nc5ccccc5n4C)c(Cl)cn3)CC2)CC1 [Example A-113, 2-{5-chloro-2-[4-(4-methylpiperazin-1-yl)piperidin-1-yl]pyridin-4-yl}-1-methyl-1H-benzimidazole] | 72% | 125 nM | 17 nM
7 | CNC(=O)c1[nH]nc2c1CN(c1cc(-c3nc4ccccc4n3C)c(Cl)cn1)CC2 [Example A-114, 5-[5-chloro-4-(1-methyl-1H-benzimidazol-2-yl)pyridin-2-yl]-N-methyl-4,5,6,7-tetrahydro-1H-pyrazolo[4,3-c]pyridine-3-carboxamide] | 71% | 140 nM | 47 nM
8 | Cn1c(-c2cc(N3CCOCC(N4CCC(O)CC4)C3)ncc2Cl)nc2ccccc21 (centres unmarked) [Example A-115, 1-{4-[5-chloro-4-(1-methyl-1H-benzimidazol-2-yl)pyridin-2-yl]-1,4-oxazepan-6-yl}piperidin-4-ol] | 69% | – | 221 nM
9 | Cc1nnc2n1CCN(c1cc(-c3nc4ccccc4n3C)c(Cl)cn1)C2 [Example A-117, 7-[5-chloro-4-(1-methyl-1H-benzimidazol-2-yl)pyridin-2-yl]-3-methyl-5,6,7,8-tetrahydro[1,2,4]triazolo[4,3-a]pyrazine] | 68% | – | 101 nM
10 | Cn1c(-c2cc(N3CCC(O)(CN4CCCC4=O)CC3)ncc2Cl)nc2ccccc21 [Example A-118, 1-({1-[5-chloro-4-(1-methyl-1H-benzimidazol-2-yl)pyridin-2-yl]-4-hydroxypiperidin-4-yl}methyl)pyrrolidin-2-one] | 65% | – | 110 nM
11 | Cn1c(-c2cc(N3CCC(N4CCC(O)CC4)CC3)ncc2Cl)nc2ccccc21 [Example A-119, 1′-[5-chloro-4-(1-methyl-1H-benzimidazol-2-yl)pyridin-2-yl]-1,4′-bipiperidin-4-ol] | 64% | – | 111 nM
12 | Cn1c(-c2cc(N3CC(c4ccn[nH]4)C3)ncc2Cl)nc2ccccc21 [Example A-120, 2-{5-chloro-2-[3-(1H-pyrazol-5-yl)azetidin-1-yl]pyridin-4-yl}-1-methyl-1H-benzimidazole] | 62% | – | 114 nM
13 | Cc1cn(C2CN(c3cc(-c4nc5ccccc5n4C)c(Cl)cn3)C2)c(=O)[nH]c1=O [Example A-121, 1-{1-[5-chloro-4-(1-methyl-1H-benzimidazol-2-yl)pyridin-2-yl]azetidin-3-yl}-5-methylpyrimidine-2,4(1H,3H)-dione] | 62% | – | 94 nM
14 | Cn1c(-c2cc(N3CCC(O)(c4ccncn4)C3)ncc2Cl)nc2ccccc21 (centres unmarked) [Example A-122, 1-[5-chloro-4-(1-methyl-1H-benzimidazol-2-yl)pyridin-2-yl]-3-pyrimidin-4-ylpyrrolidin-3-ol] | 59% | – | 38 nM
15 | Cc1nccc(C2(O)CCN(c3cc(-c4nc5ccccc5n4C)c(Cl)cn3)C2)n1 (centres unmarked) [Example A-123, 1-[5-chloro-4-(1-methyl-1H-benzimidazol-2-yl)pyridin-2-yl]-3-(2-methylpyrimidin-4-yl)pyrrolidin-3-ol] | 59% | – | 114 nM
16 | Cc1nnc(C)n1C1CCN(c2cc(-c3nc4ccccc4n3C)c(Cl)cn2)CC1 [Example A-124, 2-{5-chloro-2-[4-(3,5-dimethyl-4H-1,2,4-triazol-4-yl)piperidin-1-yl]pyridin-4-yl}-1-methyl-1H-benzimidazole] | 59% | – | 52 nM
17 | Cn1c(-c2cc(N3CC(c4ccncn4)C3)ncc2Cl)nc2ccccc21 [Example A-125, 2-[5-chloro-2-(3-pyrimidin-4-ylazetidin-1-yl)pyridin-4-yl]-1-methyl-1H-benzimidazole] | 57% | – | 135 nM
18 | Cn1c(-c2cc(N3C[C@@H](O)[C@H](O)C3)ncc2Cl)nc2ccccc21 [Example A-127, (3R,4R)-1-[5-chloro-4-(1-methyl-1H-benzimidazol-2-yl)pyridin-2-yl]pyrrolidine-3,4-diol] | 57% | – | 128 nM
19 | Cn1c(-c2cc(N3CCC(O)(c4cncnc4)C3)ncc2Cl)nc2ccccc21 (centres unmarked) [Example A-128, 1-[5-chloro-4-(1-methyl-1H-benzimidazol-2-yl)pyridin-2-yl]-3-pyrimidin-5-ylpyrrolidin-3-ol] | 54% | – | 80 nM
20 | Cn1c(-c2cc(N3C[C@@H](O)[C@@H](O)C3)ncc2Cl)nc2ccccc21 [Example A-129, (3R,4S)-1-[5-chloro-4-(1-methyl-1H-benzimidazol-2-yl)pyridin-2-yl]pyrrolidine-3,4-diol] | 53% | – | 105 nM
21 | Cn1c(-c2cc(N3CCCN(C4=NCCC(=O)N4)CC3)ncc2Cl)nc2ccccc21 [Example A-130, 2-{4-[5-chloro-4-(1-methyl-1H-benzimidazol-2-yl)pyridin-2-yl]-1,4-diazepan-1-yl}-5,6-dihydropyrimidin-4(3H)-one] | 53% | – | 129 nM
22 | Cn1c(-c2cc(N3CC(c4ncccn4)C3)ncc2Cl)nc2ccccc21 [Example A-131, 2-[5-chloro-2-(3-pyrimidin-2-ylazetidin-1-yl)pyridin-4-yl]-1-methyl-1H-benzimidazole] | 52% | – | 161 nM
23 | Cn1cnnc1C1CCN(c2cc(-c3nc4ccccc4n3C)c(Cl)cn2)CC1 [Example A-132, 2-{5-chloro-2-[4-(4-methyl-4H-1,2,4-triazol-3-yl)piperidin-1-yl]pyridin-4-yl}-1-methyl-1H-benzimidazole] | 51% | – | 199 nM
24 | COC(=O)N1CCN(c2cc(-c3nc4ccccc4n3C)ccn2)CC1 [Example A-141, methyl 4-[4-(1-methyl-1H-benzimidazol-2-yl)pyridin-2-yl]piperazine-1-carboxylate] | 96% | 34 nM | 27 nM
25 | CNC(=O)N1CCN(c2cc(-c3nc4ccccc4n3C)ccn2)CC1 [Example A-144, N-methyl-4-[4-(1-methyl-1H-benzimidazol-2-yl)pyridin-2-yl]piperazine-1-carboxamide] | 78% | 90 nM | 159 nM
26 | CN(CCNS(C)(=O)=O)c1cc(-c2nc3ccccc3n2C)c(Cl)cn1 [Example A-145, N-(2-{[5-chloro-4-(1-methyl-1H-benzimidazol-2-yl)pyridin-2-yl](methyl)amino}ethyl)methanesulfonamide] | 97% | 22 nM | 22 nM
27 | Cn1c(-c2cc(N3C[C@H]4C[C@@H]3CN4S(C)(=O)=O)ncc2Cl)nc2ccccc21 [Example A-146, 2-{5-chloro-2-[(1R,4R)-5-(methylsulfonyl)-2,5-diazabicyclo[2.2.1]hept-2-yl]pyridin-4-yl}-1-methyl-1H-benzimidazole] | 75% | 202 nM | 92 nM
28 | CCNC(=O)NC1CN(c2cc(-c3nc4ccccc4n3C)c(Cl)cn2)C1 [Example A-148, 1-{1-[5-chloro-4-(1-methyl-1H-benzimidazol-2-yl)pyridin-2-yl]azetidin-3-yl}-3-ethylurea] | 95% | 21 nM | 9 nM
29 | CN(C1CN(c2cc(-c3nc4ccccc4n3C)c(Cl)cn2)C1)S(C)(=O)=O [Example A-149, N-{1-[5-chloro-4-(1-methyl-1H-benzimidazol-2-yl)pyridin-2-yl]azetidin-3-yl}-N-methylmethanesulfonamide] | 95% | 14 nM | 8 nM
30 | COC(=O)N(C)C1CN(c2cc(-c3nc4ccccc4n3C)c(Cl)cn2)C1 [Example A-150, methyl {1-[5-chloro-4-(1-methyl-1H-benzimidazol-2-yl)pyridin-2-yl]azetidin-3-yl}methylcarbamate] | 87% | 56 nM | 23 nM
